From patent publication US12691084B2, “Pharmaceutical composition for preventing or treating bone diseases” (INDUSTRY FOUNDATION OF CHONNAM NATIONAL UNIVERSITY, priority 2019, dated 2026)

Assays:
[1] = system: monocytes isolated from mouse bone marrow treated with RANKL; assay: Osteoclast differentiation inhibition, TRAP staining and assay; type: cell-based; conditions: 10 μM; RANKL; TRAP staining, Image J
Description: Macrophages were isolated from bone marrow of 8-week old C57BL/6J mice, and seeded on a 96-well plate in an amount of 1×10^4 cells per well, followed by treating the cells with osteoclast differentiation factors M-CSF and RANKL at 30 ng/ml and 50 ng/ml, respectively. At the same time, the compounds were used for treatment, followed by culturing the cells for 3 to 4 days. Thereafter, differentiation influence was evaluated through TRAP staining and cell counting. Specific experimental procedures and results are as follows.
The bone marrow of a 10-week-old female mouse was isolated from the hip bone, femur and tibia, and incubated in α-MEM medium (Gibco, 12561-056, 10% fetal bovine serum, 1% penicillin/streptomycin) containing macrophage colony stimulating factor (M-CSF, PeproTech, 315-02, 30 ng/ml) for […] so as to isolate only monocytes. The isolated monocytes were treated with receptor activator of nuclear factor kappa B ligand (RANKL, PeproTech, 315-11, 50 ng/ml) to induce osteoclast differentiation. When a morphology of fused multinuclear cells began to appear from day 3 after treatment with RANKL, the cells were differentiated into giant multinuclear cells for 4 to 6 days (see FIG. 1), and dead by cell apoptosis after 6 days.
During RANKL treatment, each PMSA compound was also used for treatment, followed by culturing the cells for 3 or 5 days to confirm the effects of inhibiting osteoclast differentiation.
1×10^4 monocytes isolated from mouse bone marrow were put into a 96-well plate and treated with RANKL and PMSA together to confirm the effect of each PMSA on osteoclast differentiation ability. Each PMSA was used for treatment by concentration. The activity of tartrate-resistant acid phosphatase (TRAP), which has increased expression during osteoclast differentiation, was confirmed using a TRAP activity assay kit (Cosmo Bio, PMC-AK04F-COS) (see FIG. 2).
Further, after staining, the multinuclear cells formed during osteoclast differentiation were observed under a microscope, and each well was photographed and a differentiation area ratio per total area was determined using Image J software. […] Specifically, at 10 μM concentration, cells were differentiated into osteoclasts by 30% when using #25 (PMSA-3-Ac), similarly, 74% using #25-C (PMSA-Ph), 63% using #25-N (PMSA-PhN), 41% using #25-PhO (PMSA-O), and only 1% using #25-D12 (PMSA-2-OMe-5-Cl), respectively. […]

mouse bone marrow cells = assay: Bone resorption assay on calcium phosphate coated plate; type: cell-based; conditions: 6 days; for bone resorption ability: compared to Ctrl
Description: Bone resorption ability was confirmed using a bone resorption assay kit (Cosmo Rio, CSR-BRA). 2.5×10^4 mouse bone marrow cells per well were put into a 48-well plate coated with calcium phosphate, followed by treating the cells with PMSA to perform differentiation for 6 days. After 6 days, a fluorescence absorbance was measured with the culture medium to confirm the bone absorption ability. Further, decomposition degree of calcium phosphate was photographed a microscope to confirm the bone resorption ability. […] In FIG. 4, BMMs refer to monocytes that are not differentiated osteoclasts.
Further, the bone resorption ability was confirmed using a bone resorption assay kit (Cosmo Bio, CSR-BRA). 2.5×10^4 mouse bone marrow cells per well were put into a 48-well plate coated with calcium phosphate, and were differentiated for 6 days while being treated with PSTP-3,5-Me. After 6 days, the fluorescence absorbance was measured with the culture medium to confirm the bone absorption ability.

Microsomal stability (H) = type: in vitro ADME, human; conditions: H of H/M; criterion >60%
Description: (§1) In order to analyze the drug metabolism of PMSA compound, ADME evaluation was requested to the Daegu-Gyeongbuk Advanced Medical industry Promotion Foundation (DGMIF). Metabolic stability of drugs using liver microsomes (microsomal stability), drug metabolism inhibitory ability by five CYP450 enzymes, plasma metabolism (plasma stability), plasma protein binding, and intestinal permeability of drugs (PAMPA, parallel artificial membrane permeability assay) were analyzed. […] Further, it was confirmed that the permeability resistance was excellent (see Table 3 below). On the other hand, for one of PMSA derivatives, that is, 2-(N-(3,5-dimethylphenyl)methylsulfinamido)-N-(2 (phenylthio)phenyl)propanamide (#25-D5), intestinal permeability of the drug (PAMPA) was not measured.

Microsomal stability (M) = type: in vitro ADME, mouse; conditions: M of H/M; criterion >60%
Description: as §1

CYP1A2 = molecular target: T1, CYP1A2 (Homo sapiens, UniProt P05177); assay: CYP450 drug metabolism inhibition, 1A2; type: in vitro ADME; conditions: criterion remaining activity >50%
T1 sequence (P05177 1-516): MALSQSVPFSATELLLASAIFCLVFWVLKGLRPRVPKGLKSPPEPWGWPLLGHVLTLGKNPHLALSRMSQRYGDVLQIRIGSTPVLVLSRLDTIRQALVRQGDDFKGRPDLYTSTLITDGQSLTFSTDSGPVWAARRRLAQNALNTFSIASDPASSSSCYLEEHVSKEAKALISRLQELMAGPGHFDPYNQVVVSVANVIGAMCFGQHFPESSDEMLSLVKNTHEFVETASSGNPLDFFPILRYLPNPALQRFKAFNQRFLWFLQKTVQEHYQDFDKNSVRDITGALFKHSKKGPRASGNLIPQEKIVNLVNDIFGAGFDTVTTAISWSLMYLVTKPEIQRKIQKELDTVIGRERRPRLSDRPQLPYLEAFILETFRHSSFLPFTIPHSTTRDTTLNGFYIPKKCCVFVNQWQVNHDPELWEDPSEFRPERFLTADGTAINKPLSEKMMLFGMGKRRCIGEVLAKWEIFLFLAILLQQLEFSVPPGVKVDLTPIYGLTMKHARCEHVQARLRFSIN
Description: as §1

CYP2C9 = CYP2C9 (Homo sapiens, UniProt P11712); assay: CYP450 drug metabolism inhibition, 2C9; type: in vitro ADME; conditions: criterion remaining activity >50%
Description: as §1

CYP2C19 = CYP2C19 (Homo sapiens, UniProt P33261); assay: CYP450 drug metabolism inhibition, 2C19; type: in vitro ADME; conditions: criterion remaining activity >50%
Description: as §1

CYP2D6 = CYP2D6 (Homo sapiens, UniProt P10635); assay: CYP450 drug metabolism inhibition, 2D6; type: in vitro ADME; conditions: criterion remaining activity >50%
Description: as §1

CYP3A4 = CYP3A4 (Homo sapiens, UniProt P08684); assay: CYP450 drug metabolism inhibition, 3A4; type: in vitro ADME; conditions: criterion remaining activity >50%
Description: as §1

Plasma stability = type: in vitro ADME
Description: as §1

plasma proteins = assay: Plasma protein binding (PPB); type: in vitro ADME, Human; conditions: for binding with plasma proteins: conclusion from ADME evaluation
Description: as §1

[2] = PAMPA, parallel artificial membrane permeability assay; type: in vitro ADME; conditions: for Papp: PAMPA, criterion >40, read-out: PAMPA (>40) Pe; for permeability resistance: conclusion from ADME evaluation
Description: as §1

[3] = ADME evaluation (DGMIF), overall conclusion on toxicity; type: in vitro ADME; conditions: conclusion from ADME evaluation
Description: as §1

Sequence of CYP2D6 (P10635 whole entry): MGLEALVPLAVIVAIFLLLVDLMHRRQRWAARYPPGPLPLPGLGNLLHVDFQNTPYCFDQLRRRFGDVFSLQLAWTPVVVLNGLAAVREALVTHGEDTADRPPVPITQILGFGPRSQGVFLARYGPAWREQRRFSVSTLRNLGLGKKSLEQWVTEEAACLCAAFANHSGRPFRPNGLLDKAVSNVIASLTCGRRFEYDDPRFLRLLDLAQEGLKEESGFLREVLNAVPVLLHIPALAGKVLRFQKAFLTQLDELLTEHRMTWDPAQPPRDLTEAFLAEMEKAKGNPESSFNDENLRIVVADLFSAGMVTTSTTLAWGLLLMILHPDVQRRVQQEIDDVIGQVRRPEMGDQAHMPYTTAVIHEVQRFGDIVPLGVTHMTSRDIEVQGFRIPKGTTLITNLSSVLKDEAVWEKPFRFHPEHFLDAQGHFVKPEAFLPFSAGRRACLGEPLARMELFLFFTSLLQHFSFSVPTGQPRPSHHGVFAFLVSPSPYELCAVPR
Sequence of CYP3A4 (P08684 whole entry): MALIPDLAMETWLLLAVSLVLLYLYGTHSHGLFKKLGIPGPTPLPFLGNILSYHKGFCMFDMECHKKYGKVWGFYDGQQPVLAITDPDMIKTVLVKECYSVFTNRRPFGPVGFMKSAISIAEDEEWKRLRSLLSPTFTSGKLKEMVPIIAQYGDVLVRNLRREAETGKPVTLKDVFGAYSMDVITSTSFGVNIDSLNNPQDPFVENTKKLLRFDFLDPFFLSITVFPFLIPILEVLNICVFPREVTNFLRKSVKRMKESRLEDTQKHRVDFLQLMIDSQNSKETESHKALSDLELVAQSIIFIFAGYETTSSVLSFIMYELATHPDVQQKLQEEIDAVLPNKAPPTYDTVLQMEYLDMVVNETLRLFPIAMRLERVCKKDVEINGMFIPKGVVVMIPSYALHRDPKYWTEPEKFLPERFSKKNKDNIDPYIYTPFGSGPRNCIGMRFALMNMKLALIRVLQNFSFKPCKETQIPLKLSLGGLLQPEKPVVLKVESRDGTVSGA
Sequence of CYP2C19 (P33261 whole entry): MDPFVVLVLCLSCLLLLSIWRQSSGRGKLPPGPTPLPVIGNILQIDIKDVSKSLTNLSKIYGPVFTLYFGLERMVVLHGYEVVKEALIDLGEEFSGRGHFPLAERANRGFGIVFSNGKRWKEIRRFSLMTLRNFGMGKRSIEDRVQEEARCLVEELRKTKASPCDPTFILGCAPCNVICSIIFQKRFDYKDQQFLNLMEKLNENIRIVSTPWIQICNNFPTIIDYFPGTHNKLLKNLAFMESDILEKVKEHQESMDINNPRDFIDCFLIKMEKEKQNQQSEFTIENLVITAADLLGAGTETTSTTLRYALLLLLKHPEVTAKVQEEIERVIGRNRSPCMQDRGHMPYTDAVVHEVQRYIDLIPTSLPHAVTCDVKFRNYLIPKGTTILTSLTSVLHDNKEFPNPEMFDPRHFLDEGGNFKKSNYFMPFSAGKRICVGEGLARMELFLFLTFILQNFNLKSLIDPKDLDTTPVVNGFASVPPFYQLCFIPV
Sequence of CYP2C9 (P11712 whole entry): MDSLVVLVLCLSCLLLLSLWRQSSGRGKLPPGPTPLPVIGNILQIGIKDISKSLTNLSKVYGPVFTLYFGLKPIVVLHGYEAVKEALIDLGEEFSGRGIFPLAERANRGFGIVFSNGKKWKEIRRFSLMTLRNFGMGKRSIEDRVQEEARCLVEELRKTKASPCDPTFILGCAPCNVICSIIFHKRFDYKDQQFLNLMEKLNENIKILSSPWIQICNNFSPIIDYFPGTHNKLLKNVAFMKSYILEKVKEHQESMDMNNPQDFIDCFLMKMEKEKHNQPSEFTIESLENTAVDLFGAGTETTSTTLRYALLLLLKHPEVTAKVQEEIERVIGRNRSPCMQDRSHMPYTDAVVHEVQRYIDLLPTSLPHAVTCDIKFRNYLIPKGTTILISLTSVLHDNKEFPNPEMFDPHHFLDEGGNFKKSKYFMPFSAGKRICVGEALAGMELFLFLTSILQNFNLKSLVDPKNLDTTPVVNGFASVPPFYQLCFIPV

Row | SMILES | cells differentiated into osteoclasts (differentiation area ratio per total area) [1] [%] | bone resorption ability (mouse bone marrow cells) | Microsomal stability (>60%) H (Microsomal stability (H)) [%] | Microsomal stability (>60%) M (Microsomal stability (M)) [%] | CYP 1A2 remaining activity (CYP1A2) [%] | CYP 2C9 remaining activity (CYP2C9) [%] | CYP 2C19 remaining activity (CYP2C19) [%] | CYP 2D6 remaining activity (CYP2D6) [%] | CYP 3A4 remaining activity (CYP3A4) [%] | Plasma S Human 30 min (% Remaining) (Plasma stability) | Plasma S Human 120 min (% Remaining) (Plasma stability) | PPB Human (%, bound) (plasma proteins) | binding with plasma proteins (plasma proteins) | Papp [2] [×10⁻⁶ cm/s] | permeability resistance [2] | toxicity [3] | decrease in bone resorption ability (mouse bone marrow cells; compared to differentiated osteoclasts (Ctrl) not treated, fluorescence absorbance) [%]
1 | CC(=O)c1cccc(N(CC(=O)Nc2ccccc2Nc2ccccc2)S(C)(=O)=O)c1 [#25-N, 2-(N-(3-acetylphenyl)methylsulfonamido)-N-(2-(phenylamino)phenyl)acetamide] | 63 | slightly decreased | 3.3 | 4.0 | 81.6 | 47 | 9 | 12.6 | 43.1 | 100/100 % Remaining | 100/100 % Remaining | 97.9 %, bound | good | 47.2 | excellent | low toxicity | 
2 | CC(=O)c1cccc(N(CC(=O)Nc2ccccc2Oc2ccccc2)S(C)(=O)=O)c1 [#25-O, 2-(N-(3-acetylphenyl)methylsulfonamido)-N-(2-phenoxyphenyl)acetamide] | 41 | slightly decreased | 12.5 | 3.1 | 100 | 49.7 | 10.4 | 53.1 | 70.1 | 94.3 % Remaining | 96.4 % Remaining | 98.4 %, bound | good | 66.2 | excellent | low toxicity | 
3 | CC(=O)c1cccc(N(CC(=O)Nc2ccccc2-c2ccccc2)S(C)(=O)=O)c1 [#25-C, N-([1,1′-biphenyl]-2-yl)-2-(N-(3-acetylphenyl)methylsulfonamido)acetamide] | 74 |  | 50.6 | 3.7 | 96.8 | 67.2 | 6.9 | 18.3 | 72 | 100/100 % Remaining | 100/100 % Remaining | 97.9 %, bound | good | 76.6 | excellent | low toxicity | 13.4
